Reference: patent US10414811B2, “Protease-resistant lipidated GLP-1 analogs” (MEDIMMUNE LIMITED, priority 2015, dated 2019)
Like-named read-outs stand apart in the source and are kept apart here. Numbered stars: 1 amine (or outer) side, 2 acyl side, 3 side chain; on linkers, the order of the positions; unused ones are H or OH. Square brackets hold non-standard residues; d marks the D form. Side chains are listed from the residue outwards. Peptide text beside a SMILES is read from it. * marks the point of attachment. C18 diacid = O=C(O)CCCCCCCCCCCCCCCCC(=O)*; γGlu = O=C(O)[C@H](CCC(=O)[*:2])N[*:1]; Palmitoyl = CCCCCCCCCCCCCCCC(=O)*; αMeF = C[C@](N)(Cc1ccccc1)C(=O)O; αMeK = C[C@](N)(CCCCN)C(=O)O; Lauroyl = CCCCCCCCCCCC(=O)*; αMeS = C[C@](N)(CO)C(=O)O; AEEA = NCCOCCOCC(=O)O; Aib = CC(C)(N)C(=O)O

Experiments:
Assay type in all cases: cell-based
[1] = biological target: T1, human glucagon receptor (GCGR) (Homo sapiens, UniProt P47871); test: cAMP assay, human GCGR cells
T1 construct: expressed in transfected cells
T1 sequence (P47871 26-477): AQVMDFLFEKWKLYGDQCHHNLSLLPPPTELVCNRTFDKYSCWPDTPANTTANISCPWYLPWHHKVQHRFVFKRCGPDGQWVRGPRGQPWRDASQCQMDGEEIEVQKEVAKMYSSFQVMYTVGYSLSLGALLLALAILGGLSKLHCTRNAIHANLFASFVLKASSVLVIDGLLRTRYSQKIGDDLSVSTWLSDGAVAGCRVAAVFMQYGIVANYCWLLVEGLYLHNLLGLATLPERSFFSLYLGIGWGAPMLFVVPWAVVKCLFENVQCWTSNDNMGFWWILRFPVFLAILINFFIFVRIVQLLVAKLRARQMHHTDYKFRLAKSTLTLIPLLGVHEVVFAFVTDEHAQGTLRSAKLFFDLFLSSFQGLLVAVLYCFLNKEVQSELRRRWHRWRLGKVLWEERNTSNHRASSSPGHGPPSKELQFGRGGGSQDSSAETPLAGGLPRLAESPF
Method in brief: (§1)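 Peptide-stimulated cAMP measured by two-step HTRF after a 30 min room-temperature incubation with receptor-expressing cells (hGLP-1R, hGIPR at 1×10^5 cells/ml; hGCGR at 2×10^5 cells/ml). Duplicate dilutions; EC50 from 4-parameter logistic fit of % Delta F.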

[2] = biological target: T2, human GLP-1 receptor (GLP-1R) (Homo sapiens, UniProt P43220); test: cAMP assay, human GLP-1R cells
T2 construct: expressed in transfected cells
T2 sequence (P43220 24-463): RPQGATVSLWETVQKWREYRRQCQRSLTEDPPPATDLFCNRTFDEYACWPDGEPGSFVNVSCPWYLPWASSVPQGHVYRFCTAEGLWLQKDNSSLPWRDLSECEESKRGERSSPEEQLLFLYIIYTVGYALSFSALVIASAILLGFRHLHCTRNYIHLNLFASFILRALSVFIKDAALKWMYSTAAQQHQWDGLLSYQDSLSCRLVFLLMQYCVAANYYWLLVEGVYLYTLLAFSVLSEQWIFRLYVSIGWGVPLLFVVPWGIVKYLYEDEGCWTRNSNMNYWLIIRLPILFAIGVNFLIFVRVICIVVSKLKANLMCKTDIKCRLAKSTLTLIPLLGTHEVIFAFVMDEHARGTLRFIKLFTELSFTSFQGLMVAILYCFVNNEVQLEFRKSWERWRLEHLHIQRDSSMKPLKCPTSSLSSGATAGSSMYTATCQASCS
Method in brief: as §1

[3] = biological target: T3, human glucose-dependent insulinotropic peptide receptor (GIPR) (Homo sapiens, UniProt P48546); test: cAMP assay, human GIPR cells
T3 construct: expressed in transfected cells
T3 sequence (P48546 22-466): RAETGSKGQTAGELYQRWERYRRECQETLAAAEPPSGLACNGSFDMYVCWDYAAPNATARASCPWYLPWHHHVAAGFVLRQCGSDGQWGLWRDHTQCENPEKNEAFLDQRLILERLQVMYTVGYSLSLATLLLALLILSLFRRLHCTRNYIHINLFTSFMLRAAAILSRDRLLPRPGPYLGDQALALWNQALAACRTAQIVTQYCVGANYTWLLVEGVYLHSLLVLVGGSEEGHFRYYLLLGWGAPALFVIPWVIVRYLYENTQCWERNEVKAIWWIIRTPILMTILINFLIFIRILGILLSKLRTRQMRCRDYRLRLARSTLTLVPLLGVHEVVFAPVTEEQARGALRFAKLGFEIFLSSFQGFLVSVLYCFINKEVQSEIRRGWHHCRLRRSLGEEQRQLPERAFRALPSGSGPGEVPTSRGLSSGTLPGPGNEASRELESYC
Method in brief: as §1

[4] = cAMP assay, first determination (n1), read-out: Primary assay EC50 Gluc-R (n1)
[5] = cAMP assay, second determination (n2), read-out: Primary assay EC50 Gluc-R (n2)
[6] = cAMP assay, first determination (n1), read-out: Primary assay EC50 GLP-1R n1
[7] = cAMP assay, second determination (n2), read-out: Primary assay EC50 GLP-1R n2
[8] = mean of n1 and n2, read-out: Mean pM GLP-1R
[9] = cAMP assay, first determination (n1), read-out: Primary assay EC50 GIP-R (n1)
[10] = cAMP assay, second determination (n2), read-out: Primary assay EC50 GIP-R (n2)

Row | EC50 ([1]; tris-lipidated peptides, first replicate, read-out: Primary assay EC50 Gluc-R (n1)) | EC50 ([2]; tris-lipidated peptides, mean of n1 and n2, read-out: Primary assay EC50 Mean pM GLP-1R) | EC50 ([2]; tris-lipidated peptides, replicate n1, read-out: Primary assay EC50 GLP-1R n1) | EC50 ([2]; tris-lipidated peptides, replicate n2, read-out: Primary assay EC50 GLP-1R n2) | EC50 ([3]; tris-lipidated peptides, first replicate, read-out: Primary assay EC50 GIP-R (n1)) | EC50 [1, 4] | EC50 [1, 5] | EC50 [2, 6] | EC50 [2, 7] | EC50 [2, 8] | EC50 [3, 9] | EC50 [3, 10] | SMILES
1 | 20 nM | 117 pM | 101 pM | 133 pM | 20 nM |  |  |  |  |  |  |  | CCCCCCCCCCCC(=O)N[C@@H](CCC(=O)NCCOCCOCC(=O)NCCOCCOCC(=O)NCCCC[C@H](NC(=O)[C@H](C)NC(=O)[C@@H](NC(=O)[C@H](Cc1ccccc1)NC(=O)[C@H](CCC(=O)O)NC(=O)[C@](C)(CCCCN)NC(=O)[C@H](C)NC(=O)[C@H](CCCCNC(=O)COCCOCCNC(=O)COCCOCCNC(=O)CC[C@H](NC(=O)CCCCCCCCCCC)C(=O)O)NC(=O)[C@H](CCC(=O)O)NC(=O)CNC(=O)[C@H](CCC(=O)O)NC(=O)[C@H](CC(C)C)NC(=O)[C@H](CCCCNC(=O)COCCOCCNC(=O)COCCOCCNC(=O)CC[C@H](NC(=O)CCCCCCCCCCC)C(=O)O)NC(=O)[C@H](CO)NC(=O)[C@](C)(CO)NC(=O)[C@@H](NC(=O)[C@H](CC(=O)O)NC(=O)[C@H](CO)NC(=O)[C@@H](NC(=O)[C@](C)(Cc1ccccc1)NC(=O)[C@H](CO)NC(=O)CNC(=O)[C@H](CCC(=O)O)NC(=O)C(C)(C)NC(=O)[C@@H](N)Cc1c[nH]cn1)[C@@H](C)O)C(C)C)[C@@H](C)CC)C(=O)N[C@H](C(=O)N[C@H](C(=O)N[C@@H](CCC(=O)O)C(=O)NCC(=O)NCC(N)=O)C(C)C)C(C)C)C(=O)O [compound 465] (H-H[Aib]EGS[αMeF]TSDV[αMeS]SK([AEEA-AEEA-γGlu-Lauroyl])LEGEK([AEEA-AEEA-γGlu-Lauroyl])A[αMeK]EFIAK([AEEA-AEEA-γGlu-Lauroyl])VVEGG-NH2)
2 |  |  |  |  |  | ≥ 27 nM | ≥ 27 nM | 74 pM | 92 pM | 83 pM | ≥ 27 nM | ≥ 27 nM | CCCCCCCCCCCCCCCC(=O)N[C@@H](CCC(=O)NCCCC[C@H](NC(=O)CNC(=O)[C@](C)(CCCCN)NC(=O)[C@@H](NC(=O)[C@@H](NC(=O)[C@](C)(Cc1ccccc1)NC(=O)[C@H](C)NC(=O)[C@@H](NC(=O)[C@](C)(Cc1ccccc1)NC(=O)[C@H](CCC(=O)O)NC(=O)[C@](C)(CCCCN)NC(=O)[C@H](C)NC(=O)[C@H](C)NC(=O)[C@H](CCC(=O)O)NC(=O)CNC(=O)[C@H](CCC(=O)O)NC(=O)[C@H](CC(C)C)NC(=O)[C@](C)(Cc1ccccc1)NC(=O)[C@H](CO)NC(=O)[C@](C)(CO)NC(=O)[C@@H](NC(=O)[C@H](CC(=O)O)NC(=O)[C@H](CO)NC(=O)[C@@H](NC(=O)[C@](C)(Cc1ccccc1)NC(=O)[C@H](CO)NC(=O)CNC(=O)[C@H](CCC(=O)O)NC(=O)C(C)(C)NC(=O)[C@@H](N)Cc1c[nH]cn1)[C@@H](C)O)C(C)C)[C@@H](C)CC)C(C)C)C(C)C)C(N)=O)C(=O)O [compound 70] (H-H[Aib]EGS[αMeF]TSDV[αMeS]S[αMeF]LEGEAA[αMeK]E[αMeF]IA[αMeF]VV[αMeK]GK([γGlu-Palmitoyl])-NH2; N-terminus assumed)
3 |  |  |  |  |  | ≥ 25 nM | ≥ 25.1 nM | ≥ 25000 pM | ≥ 25100 pM | ≥ 25100 pM | ≥ 25 nM | ≥ 25.1 nM | CC[C@H](C)[C@H](NC(=O)[C@](C)(Cc1ccccc1)NC(=O)[C@H](CCC(=O)O)NC(=O)[C@](C)(CCCCN)NC(=O)[C@H](C)NC(=O)[C@H](C)NC(=O)[C@H](CCC(=O)O)NC(=O)CNC(=O)[C@H](CCC(=O)O)NC(=O)[C@H](CC(C)C)NC(=O)[C@](C)(Cc1ccccc1)NC(=O)[C@H](CO)NC(=O)[C@](C)(CO)NC(=O)[C@@H](NC(=O)[C@H](CC(=O)O)NC(=O)[C@H](CO)NC(=O)[C@@H](NC(=O)[C@](C)(Cc1ccccc1)NC(=O)[C@H](CCCCNC(=O)COCCOCCNC(=O)COCCOCCNC(=O)CC[C@H](NC(=O)CCCCCCCCCCCCCCCCC(=O)O)C(=O)O)NC(=O)CNC(=O)[C@H](CCC(=O)O)NC(=O)C(C)(C)NC(=O)[C@@H](N)Cc1c[nH]cn1)[C@@H](C)O)C(C)C)C(=O)N[C@@H](C)C(=O)N[C@@](C)(Cc1ccccc1)C(=O)N[C@H](C(=O)N[C@H](C(=O)N[C@@](C)(CCCCN)C(=O)NCC(=O)NCC(N)=O)C(C)C)C(C)C [compound 124] (H-H[Aib]EGK([AEEA-AEEA-γGlu-C18 diacid])[αMeF]TSDV[αMeS]S[αMeF]LEGEAA[αMeK]E[αMeF]IA[αMeF]VV[αMeK]GG-NH2; N-terminus assumed)
